Results on 5 molecules are retold here after PubChem BioAssay AID2060486 (Molecular Pharmacology Branch, DTP, NCI, 2025).

As usually defined, the viability, T/C is the ratio of treated to control. Usually IC50 stands for the point on the concentration scale where inhibition reaches its midpoint.

Where “and” joins values, the source holds several entries; their conditions need not be identical. Equal entries are not always repeated.

This assay has as its system IGROV1 complex spheroids (HUVEC, MSC), viability % test/control. The experiment in a line: Anticancer human tumor IGROV1 cell line growth inhibition [GQUAD].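 On all read-outs here: spheroids exposed to compounds for 7 days before readout.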 The note with it: for viability, T/C: stronger effect = lower value. An excerpt:
DNA G-quadruplex Stabilizer Agents in Combinations in Complex Spheroids
A high-throughput screen of multi-cell type tumor spheroids was designed to identify active combinations of DNA G-quadruplex stabilizer agents and targeted small molecules. Complex spheroids include a stromal component modeled by human endothelial cells (HUVEC) and fibroblasts modeled by human mesenchymal stem cells (MSCs). The concentration ranges selected for each drug and investigational agent were based upon clinically achievable concentrations if the clinical Cmax of the agent was known.
Compounds. The drugs and investigational agents: pidnarulex (CX-5461; NSC782164), APTO-253 (NSC789042), BRACO-19 (NSC847499), peposertib (NSC802822), ceralasertib (NSC780249), elimusertib (NSC800525), camonsertib (NSC841442), AZD-1390 (NSC803789), olaparib (NSC753686), talazoparib (NSC767125), ART-558 (NSC835418), sotorasib (NSC818433), MRTX-1133 (NSC836407), SN-38 (NSC673596), topotecan (NSC609699), etoposide (NSC141540), doxorubicin (NSC123127), gemcitabine (NSC613327), 5-fluorouracil (NSC19893), paclitaxel (NSC125973), vemurafenib (NSC761431), panobinostat (NSC761190), R-306465 (JNJ-16241199; NSC773264), adavosertib (NSC754352), TP-3654 (NSC805149), carboplatin (NSC241240), KSQ-4279 (NSC840948), and staurosporine (NSC755774) were obtained from the National Cancer Institute (NCI) Developmental Therapeutics Program Chemical Repository (34). The FDA-approved anticancer drug set is available from the NCI Developmental Therapeutics Program. […] The stock solutions were prepared in dimethyl sulfoxide (DMSO, Sigma-Aldrich, St. Louis, MO, cat. D2650) at 800-fold the tested concentration and stored at -70 degrees C prior to their use. All drugs and investigational agents were tested over a range starting from a high concentration at or near the clinical Cmax and decreasing in half-log increments. If the clinical Cmax for an agent had not been determined, the highest concentration tested was 10 microM.
2.3 Cell Culture. All cells were maintained in an incubator at 37 degrees C and 5% CO2 with 95% humidity. The PDC lines were cultured according to standard operating procedures established by the NCI PDMR. All PDCs were thawed and cultured in Matrigel-coated flasks prepared with a working solution of 1X Ham's F-12 nutrient mix, without supplementation (Invitrogen, cat. 11765054), 100 U/mL penicillin-streptomycin (Invitrogen, cat. 15140122), and 2.5% Matrigel (Corning Inc., cat. 354248) for the first three passages. The 857933-349-R-J2-PDC line was cultured in 6C/Colon 1B media, which includes advanced DMEM/F-12 (Thermo Fisher Scientific, cat. 12634028), 10 mM HEPES (Thermo Fisher Scientific, cat. 15630080), 1X GlutaMAX supplement (Thermo Fisher Scientific, cat. 35050061), 0.1 mg/mL primocin (InvivoGen, cat. ant-pm-2), 10% defined fetal bovine serum, heat inactivated (HyClone Laboratories Inc., cat. SH30070.03HI), 50% L-WRN conditioned media (ATCC, cat. CRL-3276), 1.25 mM N-Acetyl-L-cysteine (Sigma-Aldrich, cat. A9165), 10 mM nicotinamide (Sigma-Aldrich, cat. N0636), 1X B-27 supplement (Thermo Fisher Scientific, cat. 17504044), 1X N-2 supplement (Thermo Fisher Scientific, cat. 17502048), 10 microM Y-27632 dihydrochloride (Tocris Bioscience, cat. 1254), and 50 ng/mL human EGF recombinant protein (Thermo Fisher Scientific, cat. PHG0311). The 485176-168-R4-J1-PDC line was cultured in Panc media, which includes all 6C/Colon 1B media components plus 100 ng/mL human FGF-10 (Thermo Fisher Scientific, cat. 100-26), 500 nM SB-431542 (Selleckchem, cat. S1067), and gastrin (Tocris, cat. 3006).
[…]

Where [1] appears, read: curve of first compound, second compound 0.0316 µM.
The mark [2] stands for this setting: curve of first compound, second compound 0.1 µM.
Where [3] appears, read: curve of first compound, second compound 0.316 µM.
Setting [4] is: curve of first compound, second compound 1 µM.
Where [5] appears, read: curve of first compound, second compound 3.16 µM.
[6] abbreviates: curve of first compound, second compound 10 µM.
Where [7] appears, read: second compound 0.0316 µM, first compound 0.0316 µM.
Where [8] appears, read: second compound 0.0316 µM, first compound 0.316 µM.
Setting [9] is: second compound 0.1 µM, first compound 0.0316 µM.
Setting [10] is: second compound 0.1 µM, first compound 0.316 µM.
[11] abbreviates: second compound 0.316 µM, first compound 0.0316 µM.
The mark [12] stands for this setting: second compound 0.316 µM, first compound 0.316 µM.
The mark [13] stands for this setting: second compound 1 µM, first compound 0.0316 µM.
Setting [14] is: second compound 1 µM, first compound 0.316 µM.
[15] abbreviates: second compound 3.16 µM, first compound 0.0316 µM.
The mark [16] stands for this setting: second compound 3.16 µM, first compound 0.316 µM.
[17] abbreviates: second compound 10 µM, first compound 0.0316 µM.
[18] abbreviates: second compound 10 µM, first compound 0.316 µM.

As to `Cc1[nH]c2ccccc2c1CCNCc1ccc(/C=C/C(=O)NO)cc1`, the viability, T/C by setting is: (compound 0.000999 µM) 108% and 102% and 86.4%; (compound 0.00316 µM) 89.8% and 85.8% and 90.5%; (compound 0.00999 µM) 83.8% and 79.4% and 81.5%; (compound 0.0316 µM) 34.2% and 33.4% and 38.3%; (compound 0.0999 µM) 4.41% and 3.52% and 3.65%; (compound 0.316 µM) 0.26% (2×) and 0.27%. Also, the IC50 (curve of compound) is 21.7 nM and 20.5 nM and 23.2 nM.
Turning to `O=C(NO)c1cnc(N2CCN(S(=O)(=O)c3ccc4ccccc4c3)CC2)nc1`, the viability, T/C runs as follows: (compound 0.0316 µM) 65% and 73.3% and 81.7%; (compound 0.1 µM) 24% and 32.4% and 40.8%; (compound 0.316 µM) 4.46% and 3.52% and 3.88%; (compound 1 µM) 0.24% and 0.3% and 0.34%; (compound 3.16 µM) 0.04% (2×) and 0.15%; (compound 10 µM) 0.06% and 0.13% and 0.05%. Besides, the IC50 (curve of compound) was 48.1 nM and 61 nM and 77.2 nM.
As to `Cc1cccc(N(C)C(=O)C2C(O)CCN2c2nc(C)cc(C(F)(F)F)c2C#N)c1` (stereo not given), the viability, T/C reads like this: (compound 0.0316 µM) 85.7% and 108% and 109%; (compound 0.1 µM) 86.3% and 92.3% and 87.3%; (compound 0.316 µM) 100% (2×) and 103%; (compound 1 µM) 87.2% and 85.6% and 91%; (compound 3.16 µM) 89.7% and 99.7% and 89%; (compound 10 µM) 88.3% and 93.8% and 78%. Moreover, the IC50 (curve of compound) was greater than 10000 nM.
`Cc1[nH]c2ccccc2c1CCNCc1ccc(/C=C/C(=O)NO)cc1` + CN(C)c1ccc(Nc2c3ccc(NC(=O)CCN4CCCC4)cc3nc3cc(NC(=O)CCN4CCCC4)ccc23)cc1: the IC50 under setting [1] is 19.1 nM; the IC50 under setting [2] turned out to be 10.2 nM; the IC50 under setting [3] was determined as 22.7 nM; the IC50 under setting [4] is 14.7 nM; the IC50 under setting [5] came to 12.4 nM; the IC50 under setting [6] was determined as 11.7 nM. Moreover, the viability, T/C was 104% (second compound 0.0316 µM, first compound 0.000999 µM); 84.2% (second compound 0.0316 µM, first compound 0.00316 µM); 79.3% (second compound 0.0316 µM, first compound 0.00999 µM); 28.5% under setting [7]; 4.27% (second compound 0.0316 µM, first compound 0.0999 µM); 0.32% under setting [8]. Moreover, the viability, T/C was 84.3% (second compound 0.1 µM, first compound 0.000999 µM); 67.5% (second compound 0.1 µM, first compound 0.00316 µM); 51.4% (second compound 0.1 µM, first compound 0.00999 µM); 30.1% under setting [9]; 3.89% (second compound 0.1 µM, first compound 0.0999 µM); 0.33% under setting [10]. Besides, the viability, T/C runs as follows: (second compound 0.316 µM, first compound 0.000999 µM) 77.1%; (second compound 0.316 µM, first compound 0.00316 µM) 77.7%; (second compound 0.316 µM, first compound 0.00999 µM) 70.1%; under setting [11], 42.1%; (second compound 0.316 µM, first compound 0.0999 µM) 4.59%; under setting [12], 0.38%. Besides, the viability, T/C is 65.2% (second compound 1 µM, first compound 0.000999 µM); 89% (second compound 1 µM, first compound 0.00316 µM); 54.2% (second compound 1 µM, first compound 0.00999 µM); 31.2% under setting [13]; 5.62% (second compound 1 µM, first compound 0.0999 µM); 0.2% under setting [14]. Besides, the viability, T/C is 64% (second compound 3.16 µM, first compound 0.000999 µM); 82.1% (second compound 3.16 µM, first compound 0.00316 µM); 48.8% (second compound 3.16 µM, first compound 0.00999 µM); 29.6% under setting [15]; 4.53% (second compound 3.16 µM, first compound 0.0999 µM); 0.37% under setting [16]. In addition, the viability, T/C is 53% (second compound 10 µM, first compound 0.000999 µM); 55.4% (second compound 10 µM, first compound 0.00316 µM); 56.6% (second compound 10 µM, first compound 0.00999 µM); 18.1% under setting [17]; 4.24% (second compound 10 µM, first compound 0.0999 µM); 0.47% under setting [18].
For the molecule `O=C(NO)c1cnc(N2CCN(S(=O)(=O)c3ccc4ccccc4c3)CC2)nc1` + CN(C)c1ccc(Nc2c3ccc(NC(=O)CCN4CCCC4)cc3nc3cc(NC(=O)CCN4CCCC4)ccc23)cc1, the IC50 by setting is: under setting [1], 60.1 nM; under setting [2], 63.6 nM; under setting [3], 55.6 nM; under setting [4], 41.4 nM; under setting [5], 47.2 nM; under setting [6], less than 31.6 nM. Further, the viability, T/C is, setting by setting: under setting [7], 69.9%; (second compound 0.0316 µM, first compound 0.1 µM) 34.2%; under setting [8], 4.85%; (second compound 0.0316 µM, first compound 1 µM) 0.26%; (second compound 0.0316 µM, first compound 3.16 µM) 0.09%; (second compound 0.0316 µM, first compound 10 µM) 0.1%. For the same molecule, the viability, T/C runs as follows: under setting [9], 74.8%; (second compound 0.1 µM, first compound 0.1 µM) 33.9%; under setting [10], 4.46%; (second compound 0.1 µM, first compound 1 µM) 0.26%; (second compound 0.1 µM, first compound 3.16 µM) 0.07%; (second compound 0.1 µM, first compound 10 µM) 0.09%. In addition, the viability, T/C runs as follows: under setting [11], 66.6%; (second compound 0.316 µM, first compound 0.1 µM) 32.6%; under setting [12], 5.36%; (second compound 0.316 µM, first compound 1 µM) 0.25%; (second compound 0.316 µM, first compound 3.16 µM) 0.06%; (second compound 0.316 µM, first compound 10 µM) 0.08%. In addition, the viability, T/C reads like this: under setting [13], 58%; (second compound 1 µM, first compound 0.1 µM) 23.6%; under setting [14], 3.31%; (second compound 1 µM, first compound 1 µM) 0.23%; (second compound 1 µM, first compound 3.16 µM) 0.06%; (second compound 1 µM, first compound 10 µM) 0.08%. Further, the viability, T/C under setting [15] is 64.3%; the viability, T/C (second compound 3.16 µM, first compound 0.1 µM) was 23.4%; the viability, T/C under setting [16] is 3.69%; the viability, T/C (second compound 3.16 µM, first compound 1 µM) is 0.27%; the viability, T/C (second compound 3.16 µM, first compound 3.16 µM) was 0.07%; the viability, T/C (second compound 3.16 µM, first compound 10 µM) is 0.08%. Besides, the viability, T/C is, setting by setting: under setting [17], 45.4%; (second compound 10 µM, first compound 0.1 µM) 14.4%; under setting [18], 3.73%; (second compound 10 µM, first compound 1 µM) 0.21%; (second compound 10 µM, first compound 3.16 µM) 0.12%; (second compound 10 µM, first compound 10 µM) 0.11%.
